# From ChEMBL document CHEMBL1201862, “PubChem BioAssay data set” (2004)
# Active and inactive are the calls of the source.
# Key:
# Kallikrein-7 = Kallikrein-7 (Homo sapiens, UniProt P49862); assay: Fluorescence Intensity-based biochemical primary high throughput dose response assay to identify activators of kallikrein-7 (K7) zymogen.
# [1] = target: Induced myeloid leukemia cell differentiation protein Mcl-1 (Homo sapiens, UniProt Q07820); format: functional
# Caspase-6 = target: T1, Caspase-6 (Homo sapiens, UniProt P55212); assay: human caspase-6 inhibitors, dose response, biochemical, VEID-R110 fluorescence, cherry-pick (AID 720632)
# T1 sequence (P55212 whole entry): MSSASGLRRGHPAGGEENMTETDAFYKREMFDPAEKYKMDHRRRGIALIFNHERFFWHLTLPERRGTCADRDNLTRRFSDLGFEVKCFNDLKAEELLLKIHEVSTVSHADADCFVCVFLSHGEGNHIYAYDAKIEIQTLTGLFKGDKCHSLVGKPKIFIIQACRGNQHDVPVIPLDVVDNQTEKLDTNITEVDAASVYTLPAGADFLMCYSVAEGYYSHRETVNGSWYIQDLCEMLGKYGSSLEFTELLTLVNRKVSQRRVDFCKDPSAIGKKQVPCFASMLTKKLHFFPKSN
# [2] = target: Voltage-dependent T-type calcium channel subunit alpha-1H (Homo sapiens, UniProt O95180); format: functional;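 also: channel activity triggered by adding a high calcium stimulation buffer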
# [3] = target: T2, Corticotropin-releasing factor receptor 2/Corticotropin-releasing factor-binding protein (Homo sapiens, UniProt P24387+Q13324); assay: Dose Response confirmation of uHTS hits for small molecule antagonists of the CRF-binding protein and CRF-R2 receptor complex.; format: functional; conditions: read-out: IC50_Mean
# T2 sequence (Q13324 whole entry): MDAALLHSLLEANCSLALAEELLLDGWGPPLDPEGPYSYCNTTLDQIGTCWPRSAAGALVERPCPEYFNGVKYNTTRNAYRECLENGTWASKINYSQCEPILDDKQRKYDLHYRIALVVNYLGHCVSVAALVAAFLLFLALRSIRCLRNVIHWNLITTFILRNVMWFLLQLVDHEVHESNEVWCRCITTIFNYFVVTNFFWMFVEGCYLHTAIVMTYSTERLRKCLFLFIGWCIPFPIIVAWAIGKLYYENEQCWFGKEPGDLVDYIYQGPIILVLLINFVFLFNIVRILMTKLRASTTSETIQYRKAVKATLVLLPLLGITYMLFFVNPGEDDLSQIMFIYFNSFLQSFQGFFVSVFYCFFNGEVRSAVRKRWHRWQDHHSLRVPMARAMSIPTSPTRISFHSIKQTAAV
# T2 sequence (P24387 whole entry): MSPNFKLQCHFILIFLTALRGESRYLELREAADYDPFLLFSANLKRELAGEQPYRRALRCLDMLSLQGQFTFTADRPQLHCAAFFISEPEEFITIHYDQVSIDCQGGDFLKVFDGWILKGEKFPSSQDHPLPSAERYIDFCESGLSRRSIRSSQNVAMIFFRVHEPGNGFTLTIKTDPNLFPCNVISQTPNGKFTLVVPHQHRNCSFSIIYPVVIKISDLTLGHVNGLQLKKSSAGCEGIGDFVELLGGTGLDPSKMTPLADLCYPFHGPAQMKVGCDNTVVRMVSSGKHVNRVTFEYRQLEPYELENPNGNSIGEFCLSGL
# [4] = target: T3, 1-phosphatidylinositol 4,5-bisphosphate phosphodiesterase beta-3 (Homo sapiens, UniProt Q01970); assay: Fluorescence-based biochemical high throughput dose response assay to identify inhibitors of phospholipase C isozymes (PLC-B3).
# T3 sequence (Q01970 whole entry): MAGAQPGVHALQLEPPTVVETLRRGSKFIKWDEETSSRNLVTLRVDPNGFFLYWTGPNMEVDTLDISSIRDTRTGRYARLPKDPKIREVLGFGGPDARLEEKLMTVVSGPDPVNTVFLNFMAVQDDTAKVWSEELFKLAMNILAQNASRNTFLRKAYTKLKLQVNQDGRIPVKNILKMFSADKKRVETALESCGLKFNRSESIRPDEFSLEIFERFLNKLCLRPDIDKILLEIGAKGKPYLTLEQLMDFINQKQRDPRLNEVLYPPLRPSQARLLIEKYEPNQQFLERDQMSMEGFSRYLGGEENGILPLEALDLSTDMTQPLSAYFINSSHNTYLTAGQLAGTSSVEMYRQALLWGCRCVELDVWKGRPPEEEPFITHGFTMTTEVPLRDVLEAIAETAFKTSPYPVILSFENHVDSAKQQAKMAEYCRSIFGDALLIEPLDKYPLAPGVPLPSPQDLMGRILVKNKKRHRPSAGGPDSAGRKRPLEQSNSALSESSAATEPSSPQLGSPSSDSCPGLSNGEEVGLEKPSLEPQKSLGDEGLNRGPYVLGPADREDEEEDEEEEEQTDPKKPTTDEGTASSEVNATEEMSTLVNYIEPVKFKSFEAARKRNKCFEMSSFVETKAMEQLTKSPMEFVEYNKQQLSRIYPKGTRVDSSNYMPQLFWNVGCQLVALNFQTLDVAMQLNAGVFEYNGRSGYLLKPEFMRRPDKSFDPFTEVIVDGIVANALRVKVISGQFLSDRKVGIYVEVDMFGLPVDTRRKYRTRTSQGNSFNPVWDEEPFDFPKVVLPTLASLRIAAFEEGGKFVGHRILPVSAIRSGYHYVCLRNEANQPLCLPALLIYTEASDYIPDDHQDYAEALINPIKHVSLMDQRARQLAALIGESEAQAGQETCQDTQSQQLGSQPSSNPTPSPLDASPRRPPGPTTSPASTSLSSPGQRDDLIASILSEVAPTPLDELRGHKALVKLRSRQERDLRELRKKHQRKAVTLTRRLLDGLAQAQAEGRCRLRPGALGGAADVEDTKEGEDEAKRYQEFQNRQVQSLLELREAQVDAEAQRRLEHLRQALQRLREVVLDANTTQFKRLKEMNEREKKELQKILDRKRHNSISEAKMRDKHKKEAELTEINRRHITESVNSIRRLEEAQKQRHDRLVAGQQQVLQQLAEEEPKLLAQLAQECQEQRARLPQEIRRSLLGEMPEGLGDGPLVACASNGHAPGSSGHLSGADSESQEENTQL
# [5] = target: T4, 1-phosphatidylinositol 4,5-bisphosphate phosphodiesterase gamma-1 (Homo sapiens, UniProt P19174); assay: Counterscreen for inhibitors of phospholipase C isozymes (PLC-B3): Fluorescence-based biochemical high throughput dose response assay to identify inhibitors of phospholipase C isozymes (PLC-gamma1).
# T4 sequence (P19174 whole entry): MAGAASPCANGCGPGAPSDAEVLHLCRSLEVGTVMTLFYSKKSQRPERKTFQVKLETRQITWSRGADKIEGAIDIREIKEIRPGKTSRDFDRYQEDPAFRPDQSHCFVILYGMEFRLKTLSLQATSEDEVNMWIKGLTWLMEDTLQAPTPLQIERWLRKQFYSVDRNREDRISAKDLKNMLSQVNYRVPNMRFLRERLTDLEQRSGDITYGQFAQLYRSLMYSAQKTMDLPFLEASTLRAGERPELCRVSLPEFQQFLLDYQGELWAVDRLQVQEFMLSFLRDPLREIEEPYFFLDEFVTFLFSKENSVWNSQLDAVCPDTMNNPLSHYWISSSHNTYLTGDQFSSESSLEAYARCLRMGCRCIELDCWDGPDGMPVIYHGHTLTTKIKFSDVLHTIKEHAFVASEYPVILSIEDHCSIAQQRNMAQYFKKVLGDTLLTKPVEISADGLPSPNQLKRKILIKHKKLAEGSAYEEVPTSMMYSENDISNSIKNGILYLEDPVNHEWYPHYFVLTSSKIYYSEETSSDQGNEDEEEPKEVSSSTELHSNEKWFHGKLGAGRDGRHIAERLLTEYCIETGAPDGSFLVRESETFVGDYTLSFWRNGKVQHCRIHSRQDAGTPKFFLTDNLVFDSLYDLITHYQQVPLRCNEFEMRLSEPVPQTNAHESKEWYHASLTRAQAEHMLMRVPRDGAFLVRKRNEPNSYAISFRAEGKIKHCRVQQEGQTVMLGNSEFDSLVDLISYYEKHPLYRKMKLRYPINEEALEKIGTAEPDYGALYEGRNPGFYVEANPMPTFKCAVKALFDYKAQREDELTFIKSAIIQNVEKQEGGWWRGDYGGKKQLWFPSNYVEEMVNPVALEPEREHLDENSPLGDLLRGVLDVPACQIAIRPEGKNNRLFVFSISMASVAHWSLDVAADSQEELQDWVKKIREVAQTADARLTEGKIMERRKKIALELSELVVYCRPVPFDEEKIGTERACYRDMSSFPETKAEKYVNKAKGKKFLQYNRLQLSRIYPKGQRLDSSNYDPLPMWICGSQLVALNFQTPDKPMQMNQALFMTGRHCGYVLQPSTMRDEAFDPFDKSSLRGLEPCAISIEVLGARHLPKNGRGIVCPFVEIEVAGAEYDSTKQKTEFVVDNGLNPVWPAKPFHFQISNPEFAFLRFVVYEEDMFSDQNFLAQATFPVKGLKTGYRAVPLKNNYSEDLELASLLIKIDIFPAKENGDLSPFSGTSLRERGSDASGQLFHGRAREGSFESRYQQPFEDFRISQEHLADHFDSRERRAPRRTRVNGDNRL
# [6] = target: T2, Corticotropin-releasing factor receptor 2/Corticotropin-releasing factor-binding protein; assay: activators of CRF receptor 2 with binding protein – uHTS hits, confirmation (AID 602473); format: functional; conditions: read-out: EC50_Mean
# Sequence of Kallikrein-7 (P49862 whole entry): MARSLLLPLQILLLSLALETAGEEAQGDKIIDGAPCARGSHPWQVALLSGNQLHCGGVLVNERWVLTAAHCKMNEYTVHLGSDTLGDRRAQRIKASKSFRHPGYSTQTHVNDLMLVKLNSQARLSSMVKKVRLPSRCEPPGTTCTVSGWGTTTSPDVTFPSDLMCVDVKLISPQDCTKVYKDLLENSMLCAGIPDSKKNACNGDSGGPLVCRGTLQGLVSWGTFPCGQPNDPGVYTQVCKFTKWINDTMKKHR
# Sequence of Induced myeloid leukemia cell differentiation protein Mcl-1 (Q07820 whole entry): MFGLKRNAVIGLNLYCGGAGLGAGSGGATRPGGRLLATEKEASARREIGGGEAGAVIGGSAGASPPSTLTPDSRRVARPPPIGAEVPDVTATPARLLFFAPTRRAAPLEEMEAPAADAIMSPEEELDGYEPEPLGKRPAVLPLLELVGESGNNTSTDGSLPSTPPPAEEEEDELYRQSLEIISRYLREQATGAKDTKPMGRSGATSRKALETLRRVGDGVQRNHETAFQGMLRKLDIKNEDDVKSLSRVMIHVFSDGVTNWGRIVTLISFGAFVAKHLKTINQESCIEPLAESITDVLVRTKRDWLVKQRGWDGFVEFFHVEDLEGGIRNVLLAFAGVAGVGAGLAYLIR
# Sequence of Voltage-dependent T-type calcium channel subunit alpha-1H (O95180 whole entry): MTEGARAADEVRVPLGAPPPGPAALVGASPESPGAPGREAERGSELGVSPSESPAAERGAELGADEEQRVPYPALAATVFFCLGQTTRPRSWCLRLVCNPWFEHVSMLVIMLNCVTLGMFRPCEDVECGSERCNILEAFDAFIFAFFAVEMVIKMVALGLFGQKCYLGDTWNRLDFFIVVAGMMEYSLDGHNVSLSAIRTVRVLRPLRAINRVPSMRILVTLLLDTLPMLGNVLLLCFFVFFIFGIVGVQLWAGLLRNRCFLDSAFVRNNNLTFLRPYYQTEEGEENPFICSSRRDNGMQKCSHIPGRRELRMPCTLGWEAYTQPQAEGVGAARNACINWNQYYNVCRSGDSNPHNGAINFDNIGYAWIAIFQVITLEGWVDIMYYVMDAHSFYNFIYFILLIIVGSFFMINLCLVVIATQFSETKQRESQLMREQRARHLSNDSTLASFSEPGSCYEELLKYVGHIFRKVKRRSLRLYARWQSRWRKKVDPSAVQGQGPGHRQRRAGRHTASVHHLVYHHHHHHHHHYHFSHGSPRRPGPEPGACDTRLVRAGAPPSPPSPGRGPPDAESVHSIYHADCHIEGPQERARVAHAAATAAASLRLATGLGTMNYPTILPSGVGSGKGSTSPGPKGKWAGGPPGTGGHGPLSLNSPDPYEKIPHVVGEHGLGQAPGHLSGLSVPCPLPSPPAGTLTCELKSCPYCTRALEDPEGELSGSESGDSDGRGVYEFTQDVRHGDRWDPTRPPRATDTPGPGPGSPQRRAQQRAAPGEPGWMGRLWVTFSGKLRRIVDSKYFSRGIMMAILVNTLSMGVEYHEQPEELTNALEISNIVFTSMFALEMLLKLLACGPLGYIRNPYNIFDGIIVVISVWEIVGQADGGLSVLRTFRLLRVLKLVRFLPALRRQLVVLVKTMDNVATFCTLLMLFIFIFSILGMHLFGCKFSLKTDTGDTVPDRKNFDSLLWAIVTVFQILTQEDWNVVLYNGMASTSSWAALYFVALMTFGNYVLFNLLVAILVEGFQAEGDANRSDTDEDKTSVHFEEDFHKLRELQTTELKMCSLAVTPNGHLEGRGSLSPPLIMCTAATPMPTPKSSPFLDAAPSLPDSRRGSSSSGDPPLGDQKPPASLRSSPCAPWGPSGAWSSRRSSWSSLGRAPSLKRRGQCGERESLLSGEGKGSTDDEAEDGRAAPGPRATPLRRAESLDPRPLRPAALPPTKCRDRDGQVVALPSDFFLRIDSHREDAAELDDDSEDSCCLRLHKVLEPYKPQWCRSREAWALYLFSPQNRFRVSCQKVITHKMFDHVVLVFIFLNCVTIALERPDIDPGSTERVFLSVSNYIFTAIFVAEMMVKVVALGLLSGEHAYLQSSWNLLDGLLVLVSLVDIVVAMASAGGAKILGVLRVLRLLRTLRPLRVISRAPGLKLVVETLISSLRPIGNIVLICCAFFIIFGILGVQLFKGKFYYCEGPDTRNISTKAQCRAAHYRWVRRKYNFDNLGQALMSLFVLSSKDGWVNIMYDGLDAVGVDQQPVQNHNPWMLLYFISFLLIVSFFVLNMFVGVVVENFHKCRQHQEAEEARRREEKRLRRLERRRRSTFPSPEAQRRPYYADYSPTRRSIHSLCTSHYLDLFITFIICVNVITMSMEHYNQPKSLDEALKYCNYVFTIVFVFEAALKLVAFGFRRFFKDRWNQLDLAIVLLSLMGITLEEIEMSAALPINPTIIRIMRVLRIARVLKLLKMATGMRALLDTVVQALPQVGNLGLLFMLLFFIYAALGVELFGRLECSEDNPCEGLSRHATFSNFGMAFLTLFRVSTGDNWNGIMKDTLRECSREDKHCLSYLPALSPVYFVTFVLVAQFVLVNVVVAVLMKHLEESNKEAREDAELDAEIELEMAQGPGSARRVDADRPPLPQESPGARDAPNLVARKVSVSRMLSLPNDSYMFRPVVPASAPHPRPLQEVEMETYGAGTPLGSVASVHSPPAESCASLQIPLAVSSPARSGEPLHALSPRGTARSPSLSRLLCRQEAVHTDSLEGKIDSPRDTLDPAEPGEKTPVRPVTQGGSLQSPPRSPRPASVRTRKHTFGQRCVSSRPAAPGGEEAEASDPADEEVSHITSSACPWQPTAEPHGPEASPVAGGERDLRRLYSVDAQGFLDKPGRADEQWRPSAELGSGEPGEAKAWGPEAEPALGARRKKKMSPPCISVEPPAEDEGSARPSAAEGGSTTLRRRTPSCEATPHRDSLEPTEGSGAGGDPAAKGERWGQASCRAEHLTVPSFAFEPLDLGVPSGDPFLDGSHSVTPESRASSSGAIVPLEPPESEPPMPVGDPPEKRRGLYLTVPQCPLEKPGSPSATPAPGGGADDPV
compound,measurement,setting,value
Cc1ccc(-c2cc(C(=O)OCC(=O)N(C)C3CCS(=O)(=O)C3)c3ccccc3n2)o1 (stereo not given),EC50,Kallikrein-7,6.97 µM (active)
same,IC50,[1],5.12 µM (active)
O=C(CSc1ccsc1[N+](=O)[O-])NCc1ccco1,AC50,Caspase-6,9.2 µM (active)
COc1ccccc1CC(=O)Nc1ccc(NC(=O)c2cccs2)cc1,EC50,Kallikrein-7,7.57 µM (active)
O=S(=O)(c1ccccc1)c1cnn(-c2ccccc2)c1-c1ccc(F)cc1,EC50,[2],5.16 µM (active)
same,IC50,[3],> 47.1 µM (inactive)
same,IC50,[4],> 123 µM (inactive)
same,IC50,[5],> 123 µM (inactive)
same,EC50,[6],> 53 µM (inactive)
CC(=O)Nc1ccc(-c2nc3ccc(NC(C)=O)cc3o2)cc1,EC50,Kallikrein-7,> 69.5 µM (inactive)
